The values below come from patent publication US11951269B2, “Drug-coated medical devices” (Medtronic Vascular, Inc., priority 2018, dated 2024).

Data set [1] can be described thus: In vivo porcine model: coated balloon deployed in femoral arteries, drug concentration in tissue. The following applies: for concentration at 1 day / concentration at 28 days: pig, femoral artery tissue, porcine femoral arteries, n=18, read-out: median concentration in the tissue; for concentration at 28 days: after 28 days; for vessels in which drug was detectable: porcine. The procedure:
In vivo studies are also performed. […] After 1 day, the median sirolimus concentration in the tissue is about 0.62 μg/g, and after 28 days the median concentration is about 0.07 μg/g (n=18).

The nature of data set [2]: Ex-vivo model: coated balloon inflated against bovine carotid artery in simulated flow loop, drug by HPLC. Particulars: for tissue concentration average: bovine carotid artery ex vivo, n=5. The procedure:
The coated balloons were inflated against tissue in an ex-vivo model. Briefly, the model included a bovine carotid artery mounted in a simulated flow loop comprising appropriately sized tubing. The system was maintained at 37° C. A standard hemostasis valve and 8 Fr introducer sheath are used to introduce the coated balloon into the tubing, the balloon is tracked through the sheath and tubing into the bovine carotid artery, and the balloon is deployed (inflated to approximately 1.1 B.A.R. and held for 60 s) against the bovine carotid artery tissue. The tissue and balloon are removed for analysis. […] Briefly, the amount of drug was measured by using HPLC of extracted solutions from testing specimens, such as utilizing a solvent to solubilize and remove all remaining drug from the balloon for analysis.

Data set [3] is described as follows: Solubility of DEX in various solvents. It counts as physicochemical.

As to `C[C@@H]1C[C@H]2[C@@H]3CCC4=CC(=O)C=C[C@]4(C)[C@@]3(F)[C@@H](O)C[C@]2(C)[C@@]1(O)C(=O)CO` [DEX, dexamethasone], in data set [1] (after 1 day), the concentration at 1 day is approximately 0.525 ng/g. Further, the concentration at 28 days in data set [1] is approximately 0.5 ng/g. Further, the “vessels in which drug was detectable” value in data set [1] (after 1 day) is “four of six vessels”; in data set [1] (day 28) it was “two of six vessels”. In data set [2], the tissue concentration average result is given as “about 22.6 μg DEX/g of tissue”. Further, the DEX solubility in data set [3] (solvent Acetone) amounted to 12 mg\mL; in data set [3] (solvent Acetonitrile), 10 mg\mL; in data set [3] (solvent Ethanol) it was 8 mg\mL; in data set [3] (solvent Methanol), 15 mg\mL; in data set [3] (solvent THF) it was 30 mg\mL.
As for `CO[C@H]1C[C@@H]2CC[C@@H](C)[C@@](O)(O2)C(=O)C(=O)N2CCCC[C@H]2C(=O)O[C@H]([C@H](C)C[C@@H]2CC[C@@H](O)[C@H](OC)C2)CC(=O)[C@H](C)/C=C(\C)[C@@H](O)[C@@H](OC)C(=O)[C@H](C)C[C@H](C)/C=C/C=C/C=C/1C` [sirolimus], the concentration at 1 day in data set [1] (after 1 day) is approximately 620 ng/g. Besides, the concentration at 28 days in data set [1] is approximately 70 ng/g. The tissue concentration average entry in data set [2] is “about 25.9 μg sirolimus/g of tissue”. For the same compound, the “drug transferred to the tissue” value in data set [2] (sirolimus/urea first layer, DEX/urea second layer, bovine carotid artery, 37° C., inflated 60 s) is “About 1.7%”.
